Assay results published in patent publication US12115174B2, “Dendrimer formulations” (AstraZeneca AB, priority 2018, dated 2024).

Columns and labels:
Type in all cases: in vivo
[1] = tested on: human acute lymphoblastic leukemia cells (RS4:11); experiment: RS4:11 Acute Lymphoblastic Leukemia xenograft efficacy in SCID mice
Method: The efficacy evaluation of the vehicle (phosphate buffer saline), Compound A (formulated in 30% HP-β-CD, pH 4), Compound 1 in PBS (equivalent to 10 mg/kg Compound A) and Compound 2 in PBS (equivalent to 10 mg/kg and 30 mg/kg Compound A) is shown.
The efficacy evaluation of the vehicle (phosphate buffer saline, PBS), a formulation of Compound A in 30% HP-β-CD, Compound 1 in PBS (equivalent to 20 mg/kg Compound A) and Compound 2 in PBS (equivalent to 20 mg/kg Compound A) and is shown.
Preparation of Compounds 1 and 2 PBS formulations for dosing RS4:11 efficacy study: The appropriate amounts of Compound 1 and 2 were weighed into a volumetric flask. 10 mL Dulbecc's Phosphate Buffered Saline (PBS) was added and formulations were then stirred until the compound dissolved entirely.
The appropriate amount of Compound A was weighed into a 10 mL volumetric flask. 8 mL of 30% w/v HP-β-CD vehicle was then added and the formulation stirred. 1M MSA was added dropwise until the pH was reduced to about 2. The formulation was then stirred until the compound dissolved entirely. The pH was measured and adjusted to pH 4, dropwise using 1M MSA or NaOH. The formulation was then stirred to make sure a clear solution (with possible haze) was obtained. The volume was then made up to 10 mL with 30% w/v HP-β-CD vehicle and stirred. The final pH was measured and recorded and the formulation filtered through a […] filter prior to administration. Other formulation strengths were prepared by diluting the Compound A in 30% w/v HP-β-CD with an appropriate amount of 30% w/v HP-β-CD vehicle.
Efficacy of Compounds 1 and 2 in RS4:11 Xenograft Model: 5×10^6 RS4; 11 cells in a total volume of 100 μL were inoculated subcutaneously at the mouse right flank. […]
(§1) On specific day, for each treated group, calculate Inhibition value by formula: Inhibition %=(CG-TG)*100/(CG-1), in which “CG” means the geometric mean of rtv of the control group and “TG” means the Geometric Mean of Relative Tumor Volume (rtv) of the treated group. “CG” should use the corresponding control group of the treated group when calculated. […]

[2] = tested on: Cleaved poly ADP ribose polymerase (PARP); experiment: Cleaved PARP response (cell death) after a single dose; settings: Compound A in HP-β-CD formulation
Method: Cleaved poly ADP ribose polymerase (PARP) response was used as a measure of cell death.
Additionally, cell death (apoptosis) was measured using cleaved PARP (FIG. 4).

SuDHL-4 = SuDHL-4 xenograft model in SCID mice, alone and with rituximab
Method: Formulations of Compound 1 for SuDHL-4 efficacy study: Compound 1 was formulated in a pH 5 citrate/phosphate buffer diluted 1:10 with 5% glucose and containing 1% w/v Kolliphor HS-15, at concentrations up to 105 mg/mL of Compound 1 (equivalent to up to 30 mg/mL of Compound A concentration).
Formulations of Compound 2 for dosing in SuDHL-4 efficacy study: Compound 2 was formulated in a pH 4 citrate/phosphate buffer diluted 1:10 with 5% Glucose and containing 1% w/v Kolliphor HS-15, at concentrations up to 121 mg/mL of Compound 2 (equivalent of up to 30 mg/mL of Compound A concentration).
Compounds 1 and 2 enhance inhibition of tumor growth by rituximab in SuDHL-4 Xenograft Model in SCID Mice: The SuDHL-4 xenograft model was used to test the ability of Compounds 1 and 2 to enhance the activity of rituximab in inhibiting tumor growth. […]
Tumor sizes were measured 2 times a week and calculated as: Tumor Volume=(A×B^2)/2 where A and B are the tumor length and width (in mm), respectively.
as §1

Row | Molecule | % Inhibition Day (47) ([1]; Compound A 5 mg/kg) | % Regression Day(47) ([1]; Compound A 5 mg/kg) | regression ([1]; Compound A HP-β-CD 10 mg/kg IV once) | time of cleaved PARP induction post treatment [2] | T − C (SuDHL-4; rituximab 10 mg/kg alone) | % Inhibition (TIC) Day(41) (SuDHL-4; rituximab 10 mg/kg i.p. once a week for 5 weeks)
1 | CN(CCO)CC[C@H](CCSc1ccccc1)CNc1ccc(S(=O)(=O)NC(=O)c2ccc(N3CCC([C@@H](O)c4ccccc4-c4ccc(Cl)cc4)CC3)cc2)cc1S(=O)(=O)C(F)(F)F [Compound A, reference compound] | >100% | 90% | 90% | immediately post treatment 1 and 3 hr | – | –
2 | rituximab [reference compound] | – | – | – | – | >16 days | 75.27%
